Test results as given in patent US12037344B2, “NLRP3 modulators” (INNATE TUMOR IMMUNITY, INC., priority 2018, dated 2024).

Assays:
TLR7 = target: T1, TLR7 (Homo sapiens, UniProt Q9NYK1); test: In vitro human TLR7 binding reporter assay (HEK-Blue, NF-kB/AP1-inducible SEAP); format: cell-based; details: activity range class, read-out: TLR7 Agonist EC50
T1 construct: human HEK-Blue cells co-expressing a TLR7 or TLR8 gene
T1 sequence (Q9NYK1 27-1049): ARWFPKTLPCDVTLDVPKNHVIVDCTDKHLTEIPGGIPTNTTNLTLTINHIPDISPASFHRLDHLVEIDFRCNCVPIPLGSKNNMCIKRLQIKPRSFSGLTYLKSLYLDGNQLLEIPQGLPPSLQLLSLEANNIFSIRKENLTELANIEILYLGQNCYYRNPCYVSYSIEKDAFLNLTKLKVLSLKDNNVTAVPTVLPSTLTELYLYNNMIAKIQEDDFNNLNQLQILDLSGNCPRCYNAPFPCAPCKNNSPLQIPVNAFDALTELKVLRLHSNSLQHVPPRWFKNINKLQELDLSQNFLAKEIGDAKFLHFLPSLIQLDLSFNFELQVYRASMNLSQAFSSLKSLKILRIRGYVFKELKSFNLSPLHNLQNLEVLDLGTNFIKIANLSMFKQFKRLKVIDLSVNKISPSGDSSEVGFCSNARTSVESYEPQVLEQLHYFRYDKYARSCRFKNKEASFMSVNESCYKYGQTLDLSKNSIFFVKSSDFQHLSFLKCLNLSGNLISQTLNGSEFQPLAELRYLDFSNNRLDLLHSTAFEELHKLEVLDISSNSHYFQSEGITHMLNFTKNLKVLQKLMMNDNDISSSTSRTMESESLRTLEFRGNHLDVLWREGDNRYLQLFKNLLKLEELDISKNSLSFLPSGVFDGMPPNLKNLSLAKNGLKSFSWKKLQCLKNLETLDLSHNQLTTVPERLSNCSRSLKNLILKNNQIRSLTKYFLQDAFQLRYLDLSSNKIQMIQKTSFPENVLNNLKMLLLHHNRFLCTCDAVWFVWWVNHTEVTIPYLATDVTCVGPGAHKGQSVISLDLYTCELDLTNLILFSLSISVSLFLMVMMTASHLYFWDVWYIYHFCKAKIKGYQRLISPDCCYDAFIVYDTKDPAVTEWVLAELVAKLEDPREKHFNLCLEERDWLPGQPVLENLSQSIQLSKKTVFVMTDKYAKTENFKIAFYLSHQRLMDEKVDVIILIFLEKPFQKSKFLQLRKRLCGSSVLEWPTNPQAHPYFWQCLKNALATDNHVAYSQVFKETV
In short: (§1)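 EC50s come from NF-kB/AP1-driven SEAP secretion in HEK-Blue cells expressing TLR7 or TLR8, measured with Quanti-Blue after an 18 h compound incubation. Maximal response is defined by a 50 μM reference standard.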

TLR8 = target: T2, TLR8 (Homo sapiens, UniProt Q9NR97); test: In vitro human TLR8 binding reporter assay (HEK-Blue, NF-kB/AP1-inducible SEAP); format: cell-based; details: activity range class, read-out: TLR8 Agonist EC50
T2 construct: human HEK-Blue cells co-expressing a TLR7 or TLR8 gene
T2 sequence (Q9NR97 27-1041): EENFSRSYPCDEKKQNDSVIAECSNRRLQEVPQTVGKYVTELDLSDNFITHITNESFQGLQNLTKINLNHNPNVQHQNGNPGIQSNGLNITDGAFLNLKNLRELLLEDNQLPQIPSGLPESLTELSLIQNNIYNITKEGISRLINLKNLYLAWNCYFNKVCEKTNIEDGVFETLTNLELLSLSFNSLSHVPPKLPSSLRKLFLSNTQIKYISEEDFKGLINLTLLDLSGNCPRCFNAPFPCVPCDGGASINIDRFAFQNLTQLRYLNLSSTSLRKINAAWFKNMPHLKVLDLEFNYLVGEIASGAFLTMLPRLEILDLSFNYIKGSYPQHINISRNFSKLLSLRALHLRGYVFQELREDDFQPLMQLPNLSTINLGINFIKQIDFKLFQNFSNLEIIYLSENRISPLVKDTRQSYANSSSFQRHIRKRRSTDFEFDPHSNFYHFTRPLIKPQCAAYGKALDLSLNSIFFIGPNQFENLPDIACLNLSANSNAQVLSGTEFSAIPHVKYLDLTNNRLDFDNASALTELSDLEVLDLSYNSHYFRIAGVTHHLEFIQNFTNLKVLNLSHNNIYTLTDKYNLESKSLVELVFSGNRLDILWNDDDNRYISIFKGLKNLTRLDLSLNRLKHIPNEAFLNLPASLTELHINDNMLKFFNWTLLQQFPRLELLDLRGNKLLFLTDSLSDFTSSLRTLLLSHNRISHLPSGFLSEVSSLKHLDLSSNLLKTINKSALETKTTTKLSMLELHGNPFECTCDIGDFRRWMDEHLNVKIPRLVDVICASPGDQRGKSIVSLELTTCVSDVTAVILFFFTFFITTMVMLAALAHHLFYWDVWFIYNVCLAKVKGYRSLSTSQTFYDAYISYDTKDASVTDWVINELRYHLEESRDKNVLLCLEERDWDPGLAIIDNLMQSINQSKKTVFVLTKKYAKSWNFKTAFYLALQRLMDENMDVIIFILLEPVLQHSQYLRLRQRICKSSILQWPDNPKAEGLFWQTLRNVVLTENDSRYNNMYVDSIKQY
In short: as §1

THP-1 cells = test: Measurement of IL-1β production, hTRF protocol (second alternative procedure), THP-1 cells; format: cell-based, human; details: Homo sapiens, THP-1, IL-1β production, human; read-out: NLRP3 hILIB EC50
In short: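 THP-1 cells differentiated overnight with 50 ng/ml PMA, then plated at 50,000 cells/well in RPMI with 2% FBS onto serial compound dilutions (top final concentration 10 μM) for 2 hours at 37° C. Supernatant IL-1β measured by hTRF (antibodies at 1:40, overnight at 4° C), read at 665/615 nm against a standard curve.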

Row | SMILES | EC50 (TLR7) | EC50 (TLR8) | EC50 (THP-1 cells)
1 | COC(C)Cn1cc2c(N)nc3cc(-c4cc[nH]n4)ccc3c2n1 (stereo not drawn) [Example 331] | > 100 µM | > 100 µM | 0.08 µM
2 | C[C@@H](CO)Cn1cc2c(N)nc3cc(-c4cc[nH]n4)ccc3c2n1 [Example 332] | > 100 µM | > 100 µM | 0.21 µM
3 | Nc1nc2cc(-c3cc[nH]n3)ccc2c2nn(CCOCC(F)(F)F)cc12 [Example 333] | > 100 µM | > 100 µM | 0.24 µM
4 | CCn1cc2c(N)nc3cc(-c4cc[nH]n4)ccc3c2n1 [Example 334] | > 100 µM | > 100 µM | 0.11 µM
5 | Nc1nc2cc(-c3cc[nH]n3)ccc2c2nn(CC3CC(F)(F)C3)cc12 [Example 335] | > 100 µM | > 100 µM | 0.39 µM
6 | COCC(C)n1cc2c(N)nc3cc(-c4cc[nH]n4)ccc3c2n1 (stereo not drawn) [Example 336] | > 100 µM | > 100 µM | 0.47 µM
7 | Nc1nc2cc(-c3cc[nH]n3)ccc2c2nn(C3CCC(O)C3)cc12 (stereo not drawn) [Example 339] | > 100 µM | > 100 µM | 0.21 µM
8 | CC1(O)CCCC1n1cc2c(N)nc3cc(-c4cc[nH]n4)ccc3c2n1 (stereo not drawn) [Example 343] | > 100 µM | > 100 µM | 0.61 µM
9 | Nc1nc2cc(-c3cc[nH]n3)ccc2c2nn(CCC(F)(F)F)cc12 [Example 348] | > 100 µM | > 100 µM | 0.62 µM
10 | Nc1nc2cc(-c3cc[nH]n3)ccc2c2nn(CCOC(F)F)cc12 [Example 349] | > 100 µM | > 100 µM | 0.35 µM
11 | Nc1nc2cc(-c3cc[nH]n3)ccc2c2nn(CCCOC(F)(F)F)cc12 [Example 350] | > 100 µM | > 100 µM | 0.35 µM
12 | Nc1nc2cc(-c3cc[nH]n3)ccc2c2nn(CCCCO)cc12 [Example 351] | > 100 µM | > 100 µM | 0.64 µM
13 | Nc1nc2cc(-c3cc[nH]n3)ccc2c2nn(CCOC(F)(F)F)cc12 [Example 352] | > 100 µM | > 100 µM | 0.08 µM
14 | Nc1nc2cc(-c3cc[nH]n3)ccc2c2nn(CC3(CO)CC3)cc12 [Example 353] | > 100 µM | > 100 µM | 0.61 µM
15 | Nc1nc2cc(-c3cc[nH]n3)ccc2c2nn(CCC(F)F)cc12 [Example 354] | > 100 µM | > 100 µM | 0.3 µM
16 | Cc1nc(Cn2cc3c(N)nc4cc(-c5cc[nH]n5)ccc4c3n2)no1 [Example 355] | > 100 µM | > 100 µM | 2.57 µM
17 | CCC(CO)Cn1cc2c(N)nc3cc(-c4cc[nH]n4)ccc3c2n1 (stereo not drawn) [Example 356] | > 100 µM | > 100 µM | 0.83 µM
18 | Nc1nc2cc(-c3cc[nH]n3)ccc2c2nn(Cc3cc[nH]n3)cc12 [Example 357] | > 100 µM | > 100 µM | 0.19 µM
19 | Nc1nc2cc(-c3cc[nH]n3)ccc2c2nn(Cc3cn[nH]c3)cc12 [Example 358] | > 100 µM | > 100 µM | 0.18 µM
20 | Nc1nc2cc(-c3cc[nH]n3)ccc2c2c1cnn2Cc1cn[nH]c1 [Example 359] | > 100 µM | > 100 µM | 1.45 µM
21 | Nc1nc2cc(-c3cc[nH]n3)ccc2c2nn(Cc3cccnn3)cc12 [Example 360] | > 100 µM | > 100 µM | 0.11 µM

The remaining lines, values ahead:

Row | EC50 (TLR7) | EC50 (TLR8) | EC50 (THP-1 cells) | SMILES
22 | > 100 µM | > 100 µM | 0.21 µM | COCCCn1cc2c(N)nc3cc(-c4cc[nH]n4)ccc3c2n1 [Example 303]
23 | > 100 µM | > 100 µM | 0.66 µM | Nc1nc2cc(-c3cc[nH]n3)ccc2c2nn(CCN3CCCC3)cc12 [Example 304]
24 | > 100 µM | > 100 µM | 0.29 µM | CCCCn1cc2c(N)nc3cc(-c4cc[nH]n4)ccc3c2n1 [Example 305]
25 | > 100 µM | > 100 µM | 1.26 µM | COCC(O)Cn1ncc2c(N)nc3cc(-c4cc[nH]n4)ccc3c21 (stereo not drawn) [Example 306]
26 | > 100 µM | > 100 µM | 0.43 µM | COCC(O)Cn1cc2c(N)nc3cc(-c4cc[nH]n4)ccc3c2n1 (stereo not drawn) [Example 307]
27 | > 100 µM | > 100 µM | 0.41 µM | C[C@H](CO)Cn1cc2c(N)nc3cc(-c4cc[nH]n4)ccc3c2n1 [Example 308]
28 | > 100 µM | > 100 µM | 0.75 µM | Nc1nc2cc(-c3cc[nH]n3)ccc2c2nn(CCOCCO)cc12 [Example 309]
29 | > 100 µM | > 100 µM | 0.75 µM | COCCOCCn1cc2c(N)nc3cc(-c4cc[nH]n4)ccc3c2n1 [Example 310]
30 | > 100 µM | > 100 µM | 0.71 µM | Nc1nc2cc(-c3cc[nH]n3)ccc2c2c1cnn2C1CCOCC1 [Example 311]
31 | > 100 µM | > 100 µM | 0.22 µM | Nc1nc2cc(-c3cc[nH]n3)ccc2c2nn(C3CCCOC3)cc12 (stereo not drawn) [Example 312]
32 | > 100 µM | > 100 µM | 0.26 µM | CC(C)(CO)Cn1cc2c(N)nc3cc(-c4cc[nH]n4)ccc3c2n1 [Example 313]
33 | > 100 µM | > 100 µM | 2.42 µM | Nc1nc2cc(-c3cc[nH]n3)ccc2c2nn(C3CCCCC3O)cc12 (stereo not drawn) [Example 317]
34 | > 100 µM | > 100 µM | 6.57 µM | Nc1nc2cc(-c3cc[nH]n3)ccc2c2nn(CC3(O)CCOCC3)cc12 [Example 320]
35 | > 100 µM | > 100 µM | 0.19 µM | Nc1nc2cc(-c3cc[nH]n3)ccc2c2nn(CCF)cc12 [Example 321]
36 | > 100 µM | > 100 µM | 0.83 µM | COC(C)(C)Cn1cc2c(N)nc3cc(-c4cc[nH]n4)ccc3c2n1 [Example 322]
37 | > 100 µM | > 100 µM | 0.78 µM | Nc1nc2cc(-c3cc[nH]n3)ccc2c2nn(C3COCC3O)cc12 (stereo not drawn) [Example 323]
38 | > 100 µM | > 100 µM | 0.22 µM | CC(C)n1cc2c(N)nc3cc(-c4cc[nH]n4)ccc3c2n1 [Example 326]
39 | > 100 µM | > 100 µM | 0.31 µM | Nc1nc2cc(-c3cc[nH]n3)ccc2c2nn(C[C@H]3CCCO3)cc12 [Example 329]
40 | > 100 µM | > 100 µM | 0.17 µM | Nc1nc2cc(-c3cc[nH]n3)ccc2c2nn(C[C@@H]3CCCO3)cc12 [Example 330]
